In ChEMBL document CHEMBL1201862, “PubChem BioAssay data set” (2004):
Calls of active or inactive are those of the source.

Columns and labels:
[1] = biological target: COUP transcription factor 2 (Homo sapiens, UniProt P24468); test: Luminescence-based cell-based high throughput dose response assay to identify inhibitors of COUP-TFII (NR2F2).; format: functional;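 also: HEK293 cells transiently cotransfected with COUP-TFII expression vector and reporter; luciferase reporter luminescence driven by COUP-TFII from the pX2-168 reporter plasmid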
Chain of COUP transcription factor 2 (P24468 whole entry): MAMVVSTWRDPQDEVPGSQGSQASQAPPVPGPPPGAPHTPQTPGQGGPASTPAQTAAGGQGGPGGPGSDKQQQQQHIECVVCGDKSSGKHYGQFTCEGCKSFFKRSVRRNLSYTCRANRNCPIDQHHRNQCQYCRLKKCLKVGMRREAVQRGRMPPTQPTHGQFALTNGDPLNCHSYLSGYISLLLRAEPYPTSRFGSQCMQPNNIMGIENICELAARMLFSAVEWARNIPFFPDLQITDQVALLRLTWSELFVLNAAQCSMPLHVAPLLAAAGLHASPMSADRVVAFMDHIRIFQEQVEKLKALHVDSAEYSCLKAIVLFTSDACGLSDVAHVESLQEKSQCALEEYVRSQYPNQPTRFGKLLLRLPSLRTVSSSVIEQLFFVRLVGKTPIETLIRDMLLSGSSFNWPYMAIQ

[2] = reduced cellular PGC1a acetyl-lysine signal – cell-based, cherry-picked samples, dose response (AID 720514); format: functional;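 also: potency may reflect raised or lowered acetylation signal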
[3] = biological target: T1, Microphthalmia-associated transcription factor (Homo sapiens, UniProt O75030); test: reducers of TRPM1 reporter luminescence, concentration series – cell-based, SK-MEL-5, cherry-picked, set 3, MITF inhibitor project, dose response (AID 493073); format: functional;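 also: SK-MEL-5 melanoma cells with luciferase driven by the MITF target TRPM1 promoter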
T1 sequence (O75030 whole entry): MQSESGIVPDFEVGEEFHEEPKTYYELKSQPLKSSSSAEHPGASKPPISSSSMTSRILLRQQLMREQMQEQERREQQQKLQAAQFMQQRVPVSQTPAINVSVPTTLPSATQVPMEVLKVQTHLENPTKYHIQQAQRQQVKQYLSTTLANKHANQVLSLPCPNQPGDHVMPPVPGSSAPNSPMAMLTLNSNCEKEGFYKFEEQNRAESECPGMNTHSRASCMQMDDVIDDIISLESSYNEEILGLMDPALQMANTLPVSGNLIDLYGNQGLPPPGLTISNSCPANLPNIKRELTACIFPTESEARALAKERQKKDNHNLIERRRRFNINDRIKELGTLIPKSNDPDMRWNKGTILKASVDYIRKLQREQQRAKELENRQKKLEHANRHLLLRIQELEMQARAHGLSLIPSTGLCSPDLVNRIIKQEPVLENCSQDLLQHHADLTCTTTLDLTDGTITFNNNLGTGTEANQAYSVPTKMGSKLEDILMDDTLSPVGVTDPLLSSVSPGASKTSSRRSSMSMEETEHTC

Mucolipin-3 = biological target: T2, Mucolipin-3 (Homo sapiens, UniProt Q8TDD5); test: Dose response cell-based high-throughput screening assay for agonists of the transient receptor potential channel ML3 (TRPML3). [Related pubchem assays: 1526, 1424, 1448 ]; format: functional
T2 sequence (Q8TDD5 whole entry): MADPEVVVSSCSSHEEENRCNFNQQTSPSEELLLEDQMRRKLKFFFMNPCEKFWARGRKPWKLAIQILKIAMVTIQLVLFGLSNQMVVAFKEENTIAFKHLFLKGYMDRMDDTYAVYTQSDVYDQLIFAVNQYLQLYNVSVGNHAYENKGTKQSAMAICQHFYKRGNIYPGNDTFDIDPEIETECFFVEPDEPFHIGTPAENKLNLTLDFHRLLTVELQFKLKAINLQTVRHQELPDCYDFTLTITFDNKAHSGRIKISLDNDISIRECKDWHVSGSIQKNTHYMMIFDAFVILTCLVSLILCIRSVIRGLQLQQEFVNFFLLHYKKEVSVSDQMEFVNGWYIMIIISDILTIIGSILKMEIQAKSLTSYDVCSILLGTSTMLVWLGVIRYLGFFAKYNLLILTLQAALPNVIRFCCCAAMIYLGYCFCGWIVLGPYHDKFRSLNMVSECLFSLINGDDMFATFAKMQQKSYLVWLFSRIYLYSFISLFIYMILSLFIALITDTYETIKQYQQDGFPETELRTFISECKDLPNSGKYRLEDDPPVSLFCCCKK

Ion channel NompC = Ion channel NompC (Danio rerio, UniProt Q7T1G6); test: Fluorescence counterscreen assay for TRPML3 agonists: dose response cell-based high-throughput screening assay to identify agonists of the transient receptor potential channel N1 (TRPN1). [Related pubchem assays: 1526, 1424, 1448 ]; format: functional
Chain of Ion channel NompC (Q7T1G6 whole entry, the tested form may be a part): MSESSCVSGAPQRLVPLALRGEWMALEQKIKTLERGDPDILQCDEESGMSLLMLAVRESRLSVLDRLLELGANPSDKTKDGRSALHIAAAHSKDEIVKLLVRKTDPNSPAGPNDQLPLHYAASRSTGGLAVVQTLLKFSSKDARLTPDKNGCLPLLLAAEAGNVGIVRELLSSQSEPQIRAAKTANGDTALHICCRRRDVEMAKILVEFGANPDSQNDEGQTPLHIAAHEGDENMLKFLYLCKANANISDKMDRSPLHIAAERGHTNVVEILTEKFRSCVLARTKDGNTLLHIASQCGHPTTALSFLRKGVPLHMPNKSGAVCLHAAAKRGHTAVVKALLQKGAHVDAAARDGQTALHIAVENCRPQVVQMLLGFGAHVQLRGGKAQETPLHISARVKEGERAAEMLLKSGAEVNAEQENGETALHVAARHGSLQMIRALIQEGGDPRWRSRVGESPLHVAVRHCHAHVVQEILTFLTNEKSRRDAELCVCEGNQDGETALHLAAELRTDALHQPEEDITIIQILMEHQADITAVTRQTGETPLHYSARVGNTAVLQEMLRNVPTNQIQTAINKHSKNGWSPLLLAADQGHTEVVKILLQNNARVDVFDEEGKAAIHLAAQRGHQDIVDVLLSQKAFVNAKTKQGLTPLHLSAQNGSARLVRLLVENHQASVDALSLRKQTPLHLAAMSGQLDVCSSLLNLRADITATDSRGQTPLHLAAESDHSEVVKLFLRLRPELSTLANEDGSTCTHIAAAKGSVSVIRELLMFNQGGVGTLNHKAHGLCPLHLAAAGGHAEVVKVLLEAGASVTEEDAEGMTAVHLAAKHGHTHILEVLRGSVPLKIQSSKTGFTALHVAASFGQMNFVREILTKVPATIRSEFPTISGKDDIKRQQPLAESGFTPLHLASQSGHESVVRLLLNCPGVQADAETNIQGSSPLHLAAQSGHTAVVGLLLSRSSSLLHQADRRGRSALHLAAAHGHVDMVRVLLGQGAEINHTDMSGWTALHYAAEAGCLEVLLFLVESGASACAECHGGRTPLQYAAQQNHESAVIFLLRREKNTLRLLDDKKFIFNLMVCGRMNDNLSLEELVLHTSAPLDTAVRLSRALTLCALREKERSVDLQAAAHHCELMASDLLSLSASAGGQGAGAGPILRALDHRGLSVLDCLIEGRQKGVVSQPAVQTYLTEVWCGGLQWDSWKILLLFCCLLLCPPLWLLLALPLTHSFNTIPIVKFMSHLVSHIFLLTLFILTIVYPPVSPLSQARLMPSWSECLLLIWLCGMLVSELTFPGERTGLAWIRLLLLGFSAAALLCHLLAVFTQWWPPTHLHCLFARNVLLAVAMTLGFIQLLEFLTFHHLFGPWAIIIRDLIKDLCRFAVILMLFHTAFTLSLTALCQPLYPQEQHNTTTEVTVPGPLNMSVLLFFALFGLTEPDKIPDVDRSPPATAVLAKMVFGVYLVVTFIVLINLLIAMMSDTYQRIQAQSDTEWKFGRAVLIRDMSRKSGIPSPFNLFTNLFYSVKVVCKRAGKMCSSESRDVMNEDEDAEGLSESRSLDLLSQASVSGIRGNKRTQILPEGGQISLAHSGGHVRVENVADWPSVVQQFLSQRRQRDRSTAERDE

[4] = biological target: T3, Disintegrin and metalloproteinase domain-containing protein 17 (Homo sapiens, UniProt P78536); test: exosite inhibitors of ADAM17, dose response, biochemical (AID 743260)
T3 sequence (P78536 whole entry, the tested form may be a part): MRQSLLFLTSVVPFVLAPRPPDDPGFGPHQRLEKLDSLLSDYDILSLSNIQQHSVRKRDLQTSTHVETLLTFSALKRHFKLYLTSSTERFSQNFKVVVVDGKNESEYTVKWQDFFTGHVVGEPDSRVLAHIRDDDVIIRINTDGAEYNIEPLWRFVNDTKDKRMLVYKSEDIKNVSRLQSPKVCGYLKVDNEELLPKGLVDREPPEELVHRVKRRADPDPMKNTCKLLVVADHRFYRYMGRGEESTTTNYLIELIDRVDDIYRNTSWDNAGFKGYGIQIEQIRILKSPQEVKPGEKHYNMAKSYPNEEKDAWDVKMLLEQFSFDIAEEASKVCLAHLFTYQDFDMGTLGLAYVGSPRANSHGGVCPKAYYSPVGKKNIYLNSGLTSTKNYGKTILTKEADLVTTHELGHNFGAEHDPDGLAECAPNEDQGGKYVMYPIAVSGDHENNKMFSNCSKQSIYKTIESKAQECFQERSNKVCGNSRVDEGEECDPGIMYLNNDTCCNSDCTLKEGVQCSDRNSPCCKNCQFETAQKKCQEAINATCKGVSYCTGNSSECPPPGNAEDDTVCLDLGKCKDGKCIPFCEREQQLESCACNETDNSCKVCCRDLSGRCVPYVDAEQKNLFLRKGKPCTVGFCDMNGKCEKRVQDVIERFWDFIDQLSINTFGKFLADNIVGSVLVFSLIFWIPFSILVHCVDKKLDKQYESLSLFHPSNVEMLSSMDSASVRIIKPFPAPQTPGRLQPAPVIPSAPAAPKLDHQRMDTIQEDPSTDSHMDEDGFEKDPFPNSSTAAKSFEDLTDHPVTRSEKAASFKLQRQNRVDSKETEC

[5] = biological target: T4, Sentrin-specific protease 1 (Homo sapiens, UniProt Q9P0U3); test: SENP1 catalytic domain blockers, concentration series – biochemical, kinetic FRET, dose response (AID 651697); format: functional; details: read-out: IC50_Mean
T4 sequence (Q9P0U3 whole entry): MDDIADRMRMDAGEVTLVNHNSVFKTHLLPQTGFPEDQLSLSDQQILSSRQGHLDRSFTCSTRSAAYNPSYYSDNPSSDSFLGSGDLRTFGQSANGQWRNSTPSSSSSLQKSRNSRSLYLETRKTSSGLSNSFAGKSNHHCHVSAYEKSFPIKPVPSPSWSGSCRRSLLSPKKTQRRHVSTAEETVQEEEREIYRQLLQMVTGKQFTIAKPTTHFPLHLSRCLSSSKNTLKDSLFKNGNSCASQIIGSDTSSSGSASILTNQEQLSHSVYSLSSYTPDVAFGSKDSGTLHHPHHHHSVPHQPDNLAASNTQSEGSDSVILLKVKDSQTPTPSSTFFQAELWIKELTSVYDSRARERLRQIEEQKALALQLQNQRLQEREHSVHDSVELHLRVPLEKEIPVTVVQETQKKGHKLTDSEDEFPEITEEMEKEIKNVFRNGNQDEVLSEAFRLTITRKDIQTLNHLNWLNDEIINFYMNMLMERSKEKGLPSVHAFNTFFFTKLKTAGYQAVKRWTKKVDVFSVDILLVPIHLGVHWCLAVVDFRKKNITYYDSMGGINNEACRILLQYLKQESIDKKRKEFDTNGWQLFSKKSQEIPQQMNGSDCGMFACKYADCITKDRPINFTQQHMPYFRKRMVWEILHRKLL

[6] = biological target: T4, Sentrin-specific protease 1; test: Dose response confirmation of small molecule inhibitors of the catalytic domain of the SUMO protease, SENP1 in a FRET assay.; format: functional; details: read-out: IC50_Mean
[7] = biological target: T5, Carboxy-terminal domain RNA polymerase II polypeptide A small phosphatase 1 (Homo sapiens, UniProt Q9GZU7); test: CTDSP1 inhibitors, concentration-response, biochemical, absorbance readout, ultra-high-throughput screen actives (AID 540297); format: functional
T5 sequence (Q9GZU7 whole entry): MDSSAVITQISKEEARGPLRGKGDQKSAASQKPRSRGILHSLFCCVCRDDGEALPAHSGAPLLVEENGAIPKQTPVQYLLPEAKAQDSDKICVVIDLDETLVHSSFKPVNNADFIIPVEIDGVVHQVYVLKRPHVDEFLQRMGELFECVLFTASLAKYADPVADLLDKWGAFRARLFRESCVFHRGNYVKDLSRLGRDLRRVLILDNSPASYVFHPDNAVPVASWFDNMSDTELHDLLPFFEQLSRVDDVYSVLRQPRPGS

[8] = biological target: T6, Probable nicotinate-nucleotide adenylyltransferase (Staphylococcus aureus (strain N315), UniProt P65502); format: functional, Staphylococcus aureus subsp. aureus N315;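 as to IC50 Mean: confirmatory dose-response retesting of NadD inhibitor hits first found in an ultra-high-throughput screen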
T6 sequence (P65502 whole entry): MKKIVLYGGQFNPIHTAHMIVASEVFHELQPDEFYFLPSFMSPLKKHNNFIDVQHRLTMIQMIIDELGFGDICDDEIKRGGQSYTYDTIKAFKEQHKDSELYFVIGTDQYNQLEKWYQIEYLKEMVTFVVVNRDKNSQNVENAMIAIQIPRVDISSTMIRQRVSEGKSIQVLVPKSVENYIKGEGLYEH

[9] = biological target: T6, Probable nicotinate-nucleotide adenylyltransferase; format: functional, Staphylococcus aureus subsp. aureus N315; details: read-out: IC50_Mean
[10] = viability loss in CEM21 cells – cell-based, CellTiter-Glo luminescence, cherry-picked, cytotoxicity control for viral fusion inhibitor project, dose response (AID 652042); format: functional;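 also: potency for signal decrease meaning cytotoxicity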
[11] = blockers of HIV-1 envelope-mediated cell-cell fusion – cherry-pick, dose response (AID 652057); format: functional, cell-based
[12] = potency of ADAM10 substrate cleavage blockers – biochemical, QFRET, dose response (AID 743254);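 also: ADAM10 enzyme with the DM2 quenched FRET peptide as substrate; EDANS fluorescence gain as the protease cuts the substrate; inhibitor potency against ADAM10 proteolytic activity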
[13] = biological target: T3, Disintegrin and metalloproteinase domain-containing protein 17; test: inhibition of ADAM17 substrate cleavage – biochemical, quenched FRET substrate, counter-screen for ADAM10 exosite inhibitor project, dose response (AID 743253)
[14] = general cell-killing toxicity readout – plate reader, dry powder samples, cytotoxicity control for PAX8 inhibitor project, dose response (AID 743021); format: functional, cell-based
Paired box protein Pax-8 = Paired box protein Pax-8 (Homo sapiens, UniProt Q06710); test: PAX8 transcriptional activity inhibition in RMG-I – RMG-I cells, luciferase, cherry-pick, dose response (AID 687027); format: functional, cell-based;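 also: luciferase reporter driven by Pax8 target thyroperoxidase promoter measured by SteadyGlo luminescence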
Chain of Paired box protein Pax-8 (Q06710 whole entry): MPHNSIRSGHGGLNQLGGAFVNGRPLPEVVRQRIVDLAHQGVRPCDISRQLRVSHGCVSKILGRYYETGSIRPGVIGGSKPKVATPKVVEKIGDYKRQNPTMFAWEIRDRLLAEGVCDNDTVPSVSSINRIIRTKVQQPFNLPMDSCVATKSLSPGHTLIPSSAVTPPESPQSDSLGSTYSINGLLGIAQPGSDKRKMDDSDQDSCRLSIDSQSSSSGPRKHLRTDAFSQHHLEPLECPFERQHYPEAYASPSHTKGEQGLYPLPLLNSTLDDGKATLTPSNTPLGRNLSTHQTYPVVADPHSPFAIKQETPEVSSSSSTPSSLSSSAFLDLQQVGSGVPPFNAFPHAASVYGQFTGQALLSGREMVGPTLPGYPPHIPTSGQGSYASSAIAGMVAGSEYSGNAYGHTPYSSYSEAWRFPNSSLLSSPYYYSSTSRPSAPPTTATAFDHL

Nonstructural protein 1 = Nonstructural protein 1 (Influenza A virus, UniProt Q194T2); format: functional, Influenza A virus (A/California/07/2009(H1N1))
Chain of Nonstructural protein 1 (Q194T2 whole entry): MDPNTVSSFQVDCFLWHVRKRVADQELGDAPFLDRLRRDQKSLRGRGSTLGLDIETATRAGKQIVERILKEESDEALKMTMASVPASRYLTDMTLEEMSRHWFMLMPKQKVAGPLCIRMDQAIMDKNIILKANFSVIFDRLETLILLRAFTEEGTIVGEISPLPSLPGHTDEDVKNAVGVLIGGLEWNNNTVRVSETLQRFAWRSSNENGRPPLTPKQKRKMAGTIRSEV

[15] = biological target: T7, Rac GTPase-activating protein 1 (Homo sapiens, UniProt Q9H0H5); test: blockers of MgcRacGAP-driven Rac1 GTP hydrolysis – biochemical, ADP Hunter fluorescence, primary and confirmatory, confirmation (AID 624330); format: functional
T7 sequence (Q9H0H5 whole entry): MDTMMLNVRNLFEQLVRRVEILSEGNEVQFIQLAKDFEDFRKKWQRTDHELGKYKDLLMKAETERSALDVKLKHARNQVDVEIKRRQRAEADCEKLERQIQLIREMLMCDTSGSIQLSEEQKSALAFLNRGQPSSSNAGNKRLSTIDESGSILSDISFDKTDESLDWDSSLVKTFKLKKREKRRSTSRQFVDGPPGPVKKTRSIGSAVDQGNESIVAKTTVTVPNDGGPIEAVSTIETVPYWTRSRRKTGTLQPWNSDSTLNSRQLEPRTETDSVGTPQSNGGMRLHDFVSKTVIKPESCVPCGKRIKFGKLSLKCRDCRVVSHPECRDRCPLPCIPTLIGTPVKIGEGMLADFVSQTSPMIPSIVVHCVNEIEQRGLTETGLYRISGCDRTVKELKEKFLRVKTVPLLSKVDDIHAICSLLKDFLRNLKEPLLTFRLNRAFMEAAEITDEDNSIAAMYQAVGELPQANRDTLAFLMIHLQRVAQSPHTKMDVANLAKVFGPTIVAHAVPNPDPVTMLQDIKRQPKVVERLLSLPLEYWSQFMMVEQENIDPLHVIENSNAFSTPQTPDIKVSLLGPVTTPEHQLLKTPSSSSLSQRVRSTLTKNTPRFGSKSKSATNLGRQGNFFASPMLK

[16] = viability loss in HepG2 hepatoma cells – cell-based, ATP luminescence, cherry-pick, activator set 2, cytotoxicity control, dose response (AID 1053143); format: functional
[17] = viability loss in HeLa cells – cytotoxicity control for MgcRacGAP inhibitor project, dose response (AID 624300); format: functional
[18] = biological target: T8, Zinc finger protein mex-5 (Caenorhabditis elegans, UniProt Q9XUB2); test: potency of MEX-5 RNA-binding blockers – biochemical, C. elegans, fluorescence polarization, dose response (AID 1960)
T8 sequence (Q9XUB2 whole entry): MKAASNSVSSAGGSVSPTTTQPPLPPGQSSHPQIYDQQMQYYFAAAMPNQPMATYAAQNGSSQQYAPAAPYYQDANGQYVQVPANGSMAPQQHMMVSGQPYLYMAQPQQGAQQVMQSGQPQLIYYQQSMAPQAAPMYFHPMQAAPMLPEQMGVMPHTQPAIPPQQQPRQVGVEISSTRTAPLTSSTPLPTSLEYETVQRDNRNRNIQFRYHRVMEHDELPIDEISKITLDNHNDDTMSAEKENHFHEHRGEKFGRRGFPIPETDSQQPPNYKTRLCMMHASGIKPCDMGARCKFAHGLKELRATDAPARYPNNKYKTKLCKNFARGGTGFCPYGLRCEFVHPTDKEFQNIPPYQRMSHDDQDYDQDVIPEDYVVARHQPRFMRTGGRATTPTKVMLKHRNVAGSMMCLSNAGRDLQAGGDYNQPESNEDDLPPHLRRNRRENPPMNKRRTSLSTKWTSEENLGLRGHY

[19] = biological target: T9, RNA-binding protein pos-1 (Caenorhabditis elegans, UniProt G5EF15); test: disruptors of C. elegans POS-1 RNA interaction – biochemical, fluorescence polarization, dose response (AID 1964);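 also: purified POS-1 fused to maltose binding protein made in E. coli; potency of compounds blocking POS-1 binding to fluorescent RNA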
T9 sequence (G5EF15 whole entry): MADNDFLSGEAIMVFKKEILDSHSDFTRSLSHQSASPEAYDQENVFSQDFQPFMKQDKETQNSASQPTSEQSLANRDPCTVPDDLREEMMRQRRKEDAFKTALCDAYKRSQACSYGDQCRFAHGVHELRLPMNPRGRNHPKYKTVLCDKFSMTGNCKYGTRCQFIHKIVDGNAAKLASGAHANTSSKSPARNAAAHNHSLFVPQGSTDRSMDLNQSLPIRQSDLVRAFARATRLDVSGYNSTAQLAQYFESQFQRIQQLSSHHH

Compound: CCc1cc(-c2nnn(CCC3COCCO3)c2CC)ccc1-c1cn(Cc2ccc3ccccc3c2)nn1 (centres undefined)
- IC50 [1]: 10 µM (inactive)

Compound: CCC(=O)N1CCN(c2ccc(Cl)cc2NC(=O)c2ccc([N+](=O)[O-])o2)CC1
- AC50 [2]: 29.4 µM (active)
- AC50 [3]: 12.4 µM (active)

Compound: C=C(C)CN1CCN(S(=O)(=O)c2ccc(C)c(N(C)S(=O)(=O)c3ccc(C)cc3)c2C)CC1
- EC50 (Mucolipin-3): 2.76 µM (active)
- EC50 (Ion channel NompC): > 29.9 µM (not active)
- IC50 [4]: > 69.5 µM (inactive)

Compound: COC(=O)C1=CC(C(=O)c2cccs2)=NN(c2ccc(OC)cc2)C1C(=O)OC (centres undefined)
- IC50 [5]: 27.9 µM (inactive)
- IC50 [6]: 34.5 µM (inactive)

Compound: COc1cccc(N2[C@@H](CC(=O)O)c3cc(C(F)(F)F)ccc3S2(=O)=O)c1
- IC50 [7]: 5.53 µM (active)
- IC50 [8]: 17.4 µM (active)
- IC50 [9]: 31.7 µM (active)

Compound: C[C@@H]1CN([C@@H](C)CO)C(=O)c2cccc(NC(=O)c3cnccn3)c2O[C@H]1CN(C)Cc1ccc(Cl)c(Cl)c1
- AC50 [10]: 49.9 µM (active)
- AC50 [11]: 53.4 µM (active)

Compound: CCn1nc(C(=O)OC(C(=O)c2c[nH]c3ccccc23)c2ccccc2)c2ccccc2c1=O (centres undefined)
- IC50 [12]: > 69.5 µM (inactive)
- IC50 [13]: > 69.5 µM (inactive)

Compound: CCS(=O)(=O)c1ccc(N=Nc2ccc(O)c3ncccc23)c(OC)c1
- AC50 [14]: 50.2 µM (active)
- AC50 (Paired box protein Pax-8): 1.19 µM (active)
- IC50 (Nonstructural protein 1): 9.78 µM (active)
- AC50 [3]: 9.23 µM (active)

Compound: COc1ccc(O)c(/C=N/n2c(-c3ccco3)cs/c2=N\c2cccnc2)c1
- IC50 [5]: 49.7 µM (inactive)
- IC50 [6]: 23.1 µM (inactive)

Compound: CCOc1cc(C2NN=C(c3ccc(C)cc3)S2)ccc1O (centres undefined)
- IC50 [15]: 112 µM (active)
- AC50 [16]: > 52 µM (inactive)
- CC50 [17]: 100 µM (active)

Compound: OC(c1ccccc1)(c1nc(-c2ccc(Cl)cc2)cs1)C(F)(F)F (centres undefined)
- IC50 [12]: 13.9 µM (inactive)
- IC50 [13]: > 69.5 µM (inactive)

Compound: O=c1c2ccccc2oc2ccc(NCCCn3ccnc3)cc12
- EC50 [18]: 50.5 µM (active)
- EC50 [19]: 55.2 µM (active)
- AC50 [16]: > 52 µM (inactive)
